Literature values, collected in patent US8636711B2 (priority 2010, dated 2014).

pH value (parenteral): 11-12
Compound: NS(=O)(=O)c1cc(C(=O)O)c(NCc2ccco2)cc1Cl [furosemide]
tolerability (intravenous or subcutaneous routes): generally well-tolerated
